Where “and” joins values, the source holds several entries; their conditions need not be identical. Equal entries are not always repeated.
Test: Phase 1 Stage 1 clinical pharmacokinetics of SC ZA co-administered with rHuPH20
Format: in vivo, human
Set-up: key to Mean Conc. / Median Conc.: BLQ = blow limit for quantitation
Details: serum; for Zoledronic Acid Concentration: individual subjects; for Mean Conc. / Median Conc.: n=3
Experimental: A pharmacokinetic study of zoledronic acid (ZA) co-administered with rHuPH20 in human subjects was conducted. The primary objective of the study was to determine the bioavailability of zoledronic acid dosed via subcutaneous (SC) co-administration with human recombinant hyaluronidase PH20 (rHuPH20). […] The patients were administered the prescribed dosage formulations as follows: Cohorts 1-5 were administered a single subcutaneous infusion in a dosage volume of 100 ml at a rate of 3 mL/min. […] The dosing solution is administered via needle or catheter into the SC space of the left anterior thigh (midway between the anterior iliac crest and the cephalad border of the patella). For cohorts 1-5, the dosing solutions were administered by a controlled rate infusion pump at approximately 3 mL/minute. […] The dosing solutions were administered by syringe push bolus injection. […] Serum concentration of ZA was determined using a qualified LC-MS-MS assay after derivatization with diazomethane (Zhu, L S et al. (2006) Rapid Commun. […] The assay range was from 2.0 to 400 ng/mL with a lower limit of quantitation (LLOQ) at 2.0 ng/mL. […] Non-compartmental analysis was used for derivation of primary and secondary pharmacokinetic (PK) parameters. […] Summary statistics (mean, standard deviation, and median) were calculated using JMP or Microsoft Excel.

[1] = ZA 0.5 mg SC infusion + 24000 Units rHuPH20, 24 h post infusion
[2] = ZA 0.5 mg SC infusion + 24000 Units rHuPH20, 48 h post infusion
[3] = ZA 1 mg SC infusion + 24000 Units rHuPH20, 48 h post infusion

For `O=P(O)(O)C(O)(Cn1ccnc1)P(=O)(O)O` [ZA, 1-hydroxy-2-(1H-imidazol-1-yl)ethylidene-1,1-bisphosphonic acid], the “Zoledronic Acid Concentration” value (ZA 0.5 mg SC infusion + 24000 Units rHuPH20, 10 min post infusion, listed as Zoledronic Acid) was 16.80 ng/mL, the “Zoledronic Acid Concentration” value (ZA 0.5 mg SC infusion + 24000 Units rHuPH20, 0.5 h post infusion, listed as Zoledronic Acid) was 16.50 ng/mL and the “Zoledronic Acid Concentration” value (ZA 0.5 mg SC infusion + 24000 Units rHuPH20, 1 h post infusion, listed as Zoledronic Acid) was 15.00 ng/mL. For the same compound, the “Zoledronic Acid Concentration” value [1] was “BLQ < (0.500) ng/mL”, the “Mean Conc.” value [1] was “BLQ” and the “Median Conc.” value [1] was “BLQ”. For the same compound, the “Zoledronic Acid Concentration” value [2] was “BLQ < (0.500) ng/mL”, the “Mean Conc.” value [2] was “BLQ” and the “Median Conc.” value [2] was “BLQ”. For the same compound, the “Zoledronic Acid Concentration” value (ZA 1 mg SC infusion + 24000 Units rHuPH20, 0 h post infusion, listed as Zoledronic Acid) was 15.30 ng/mL, the “Zoledronic Acid Concentration” value (ZA 1 mg SC infusion + 24000 Units rHuPH20, 10 min post infusion, listed as Zoledronic Acid) was 25.00 ng/mL and the “Zoledronic Acid Concentration” value (ZA 1 mg SC infusion + 24000 Units rHuPH20, 0.5 h post infusion, listed as Zoledronic Acid) was 23.00 ng/mL. For the same compound, the “Zoledronic Acid Concentration” value (ZA 1 mg SC infusion + 24000 Units rHuPH20, 1 h post infusion, listed as Zoledronic Acid) was 19.40 ng/mL, the “Zoledronic Acid Concentration” value (ZA 1 mg SC infusion + 24000 Units rHuPH20, 2 h post infusion, listed as Zoledronic Acid) was 17.00 ng/mL and the “Zoledronic Acid Concentration” value (ZA 1 mg SC infusion + 24000 Units rHuPH20, 4 h post infusion, listed as Zoledronic Acid) was 10.20 ng/mL. The “Zoledronic Acid Concentration” value (ZA 1 mg SC infusion + 24000 Units rHuPH20, 6 h post infusion, listed as Zoledronic Acid) was 5.47 ng/mL, the “Zoledronic Acid Concentration” value (ZA 1 mg SC infusion + 24000 Units rHuPH20, 8 h post infusion, listed as Zoledronic Acid) was 3.17 ng/mL and the “Zoledronic Acid Concentration” value (ZA 1 mg SC infusion + 24000 Units rHuPH20, 12 h post infusion, listed as Zoledronic Acid) was 1.30 ng/mL. The “Zoledronic Acid Concentration” value (ZA 1 mg SC infusion + 24000 Units rHuPH20, 24 h post infusion, listed as Zoledronic Acid) was 0.51 ng/mL, the “Zoledronic Acid Concentration” value [3] was “BLQ < (0.500) ng/mL” and the “Mean Conc.” value [3] was “BLQ”. For the same compound, the “Median Conc.” value [3] was “BLQ”, the “Zoledronic Acid Concentration” value (ZA 2 mg SC infusion + 24000 Units rHuPH20, 0 h post infusion, listed as Zoledronic Acid) was 39.60 ng/mL and 40.80 ng/mL and the “Zoledronic Acid Concentration” value (ZA 2 mg SC infusion + 24000 Units rHuPH20, 10 min post infusion, listed as Zoledronic Acid) was 46.30 ng/mL and 46.00 ng/mL. For the same compound, the “Zoledronic Acid Concentration” value (ZA 2 mg SC infusion + 24000 Units rHuPH20, 0.5 h post infusion, listed as Zoledronic Acid) was 47.30 ng/mL and 48.60 ng/mL, the “Zoledronic Acid Concentration” value (ZA 2 mg SC infusion + 24000 Units rHuPH20, 1 h post infusion, listed as Zoledronic Acid) was 53.00 ng/mL and 58.70 ng/mL and the “Zoledronic Acid Concentration” value (ZA 2 mg SC infusion + 24000 Units rHuPH20, 2 h post infusion, listed as Zoledronic Acid) was 40.10 ng/mL and 42.20 ng/mL. For the same compound, the “Zoledronic Acid Concentration” value (ZA 2 mg SC infusion + 24000 Units rHuPH20, 4 h post infusion, listed as Zoledronic Acid) was 20.30 ng/mL and 23.00 ng/mL, the “Zoledronic Acid Concentration” value (ZA 2 mg SC infusion + 24000 Units rHuPH20, 6 h post infusion, listed as Zoledronic Acid) was 7.71 ng/mL and 8.93 ng/mL and the “Zoledronic Acid Concentration” value (ZA 2 mg SC infusion + 24000 Units rHuPH20, 8 h post infusion, listed as Zoledronic Acid) was 3.34 ng/mL and 4.81 ng/mL. The “Zoledronic Acid Concentration” value (ZA 2 mg SC infusion + 24000 Units rHuPH20, 12 h post infusion, listed as Zoledronic Acid) was 1.64 ng/mL and 2.07 ng/mL, the “Zoledronic Acid Concentration” value (ZA 2 mg SC infusion + 24000 Units rHuPH20, 24 h post infusion, listed as Zoledronic Acid) was 0.85 ng/mL and 0.98 ng/mL and the “Zoledronic Acid Concentration” value (ZA 2 mg SC infusion + 24000 Units rHuPH20, 48 h post infusion, listed as Zoledronic Acid) was “BLQ < (0.500) ng/mL”. The “Median Conc.” value (ZA 2 mg SC infusion + 24000 Units rHuPH20, 48 h post infusion) was “BLQ”, the “Zoledronic Acid Concentration” value (ZA 5 mg SC infusion + 24000 Units rHuPH20, 0 h post infusion, listed as Zoledronic Acid) was 82.30 ng/mL and 53.50 ng/mL and 130.00 ng/mL and the “Zoledronic Acid Concentration” value (ZA 5 mg SC infusion + 24000 Units rHuPH20, 10 min post infusion, listed as Zoledronic Acid) was 76.10 ng/mL and 132.00 ng/mL. For the same compound, the “Zoledronic Acid Concentration” value (ZA 5 mg SC infusion + 24000 Units rHuPH20, 0.5 h post infusion, listed as Zoledronic Acid) was 112.00 ng/mL and 132.00 ng/mL, the “Zoledronic Acid Concentration” value (ZA 5 mg SC infusion + 24000 Units rHuPH20, 1 h post infusion, listed as Zoledronic Acid) was 113.00 ng/mL and 116.00 ng/mL and the “Zoledronic Acid Concentration” value (ZA 5 mg SC infusion + 24000 Units rHuPH20, 2 h post infusion, listed as Zoledronic Acid) was 89.80 ng/mL and 86.50 ng/mL. For the same compound, the “Zoledronic Acid Concentration” value (ZA 5 mg SC infusion + 24000 Units rHuPH20, 4 h post infusion, listed as Zoledronic Acid) was 42.80 ng/mL and 61.70 ng/mL, the “Zoledronic Acid Concentration” value (ZA 5 mg SC infusion + 24000 Units rHuPH20, 6 h post infusion, listed as Zoledronic Acid) was 22.30 ng/mL and 27.80 ng/mL and the “Zoledronic Acid Concentration” value (ZA 5 mg SC infusion + 24000 Units rHuPH20, 8 h post infusion, listed as Zoledronic Acid) was 11.00 ng/mL and 12.50 ng/mL. The “Zoledronic Acid Concentration” value (ZA 5 mg SC infusion + 24000 Units rHuPH20, 12 h post infusion, listed as Zoledronic Acid) was 4.61 ng/mL and 5.00 ng/mL, the “Zoledronic Acid Concentration” value (ZA 5 mg SC infusion + 24000 Units rHuPH20, 24 h post infusion, listed as Zoledronic Acid) was 2.98 ng/mL and 2.23 ng/mL and the “Zoledronic Acid Concentration” value (ZA 5 mg SC infusion + 24000 Units rHuPH20, 48 h post infusion, listed as Zoledronic Acid) was 1.63 ng/mL and 1.74 ng/mL.

Source: patent publication US20090311237A1, “Combination therapy using a soluble hyaluronidase and a bisphosphonate” (priority 2008, published 2009)
